Structures can show the parent of a compound that is named as a salt.
molecular target: KRas G12D (Homo sapiens (Human), UniProt P01116, G12D); test: KRas G12D Binding Assay (TR-FRET displacement of Cy5 labelled tracer); details: GDP-loaded KRAS G12D (amino acids 1:169), 60 minute incubation at 22° C.
Method: After a 60 minute incubation at 22° C., the reaction was measured using a PerkinElmer EnVision multimode plate reader via TR-FRET dual wavelength detection, and the percent of control (POC) calculated using a ratiometric emission factor. […] The POC values were fit to a 4-parameter logistic curve and the IC50 value was determined as the concentration where the curve crosses 50 POC.
ND stands for “not determined.”

Sequence of KRas G12D (P01116 other isoform, or with tags, fused parts or gaps G12D): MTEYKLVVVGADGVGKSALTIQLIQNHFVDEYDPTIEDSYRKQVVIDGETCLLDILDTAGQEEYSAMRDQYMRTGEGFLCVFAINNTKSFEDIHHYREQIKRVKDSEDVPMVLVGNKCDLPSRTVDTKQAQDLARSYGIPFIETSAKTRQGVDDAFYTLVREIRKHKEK

First: CN1CCC[C@H]1COc1nc(N2C[C@H]3CC[C@@H](C2)N3)c2cnc(-c3cccc4cccc(C#CCO)c34)c(F)c2n1 [Example 194, 3-(8-(4-((1R,5S)-3,8-diazabicyclo[3.2.1]octan-3-yl)-8-fluoro-2-(((S)-1-methylpyrrolidin-2-yl)methoxy)pyrido[4,3-d]pyrimidin-7-yl)naphthalen-1-yl)prop-2-yn-1-ol]
Second: C#Cc1cccc2cccc(-c3ncc4c(N5C[C@H]6CC[C@@H](C5)N6)nc(OC[C@@H]5CCCN5C)nc4c3F)c12 [Example 206, 4-((1R,5S)-3,8-diazabicyclo[3.2.1]octan-3-yl)-7-(8-ethynylnaphthalen-1-yl)-8-fluoro-2-(((S)-1-methylpyrrolidin-2-yl)methoxy)pyrido[4,3-d]pyrimidine]
The IC50 of the first is 30-fold higher: 151 nM for the first, 5.1 nM for the second.

`CC#Cc1cccc2cccc(-c3ncc4c(N5C[C@H]6CC[C@@H](C5)N6)nc(OCC56CCCN5CCC6)nc4c3F)c12` [Example 195, 4-((1R,5S)-3,8-diazabicyclo[3.2.1]octan-3-yl)-8-fluoro-7-(8-(prop-1-yn-1-yl)naphthalen-1-yl)-2-((tetrahydro-1H-pyrrolizin-7a(5H)-yl)methoxy)pyrido[4,3-d]pyrimidine] and `N#Cc1cccc2cccc(-c3ncc4c(N5C[C@H]6CC[C@@H](C5)N6)nc(OCC56CCCN5CCC6)nc4c3F)c12` [Example 198, 8-(4-((1R,5S)-3,8-diazabicyclo[3.2.1]octan-3-yl)-8-fluoro-2-((tetrahydro-1H-pyrrolizin-7a(5H)-yl)methoxy)pyrido[4,3-d]pyrimidin-7-yl)-1-naphthonitrile] are within 1.5-fold of each other in IC50: 20.7 nM for the first, 20.3 nM for the second.

Going from `Fc1c(-c2cccc3c2OC(F)(F)O3)ncc2c(N3C[C@H]4CC[C@@H](C3)N4)nc(OCC34CCCN3CCC4)nc12` [Example 196, 4-((1R,5S)-3,8-diazabicyclo[3.2.1]octan-3-yl)-7-(2,2-difluorobenzo[d][1,3]dioxol-4-yl)-8-fluoro-2-((tetrahydro-1H-pyrrolizin-7a(5H)-yl)methoxy)pyrido[4,3-d]pyrimidine] to `Fc1c(-c2cccc(Cl)c2OC(F)(F)F)ncc2c(N3CC4CCC(C3)N4)nc(OCC34CCCN3CCC4)nc12` [Example 230, 4-((1R,5S)-3,8-diazabicyclo[3.2.1]octan-3-yl)-7-(3-chloro-2-(trifluoromethoxy)phenyl)-8-fluoro-2-((tetrahydro-1H-pyrrolizin-7a(5H)-yl)methoxy)pyrido[4,3-d]pyrimidine bis(2,2,2-trifluoroacetate], the IC50 rises from 467 nM to 1430 nM (3.1-fold). The first is the more potent here.

`Fc1c(-c2cccc(C(F)(F)F)c2C(F)(F)F)ncc2c(N3C[C@H]4CC[C@@H](C3)N4)nc(OCC34CCCN3CCC4)nc12` [Example 197, 4-((1R,5S)-3,8-diazabicyclo[3.2.1]octan-3-yl)-7-(2,3-bis(trifluoromethyl)phenyl)-8-fluoro-2-((tetrahydro-1H-pyrrolizin-7a(5H)-yl)methoxy)pyrido[4,3-d]pyrimidine] and `Fc1c(-c2ccccc2OC(F)(F)F)ncc2c(N3C[C@H]4CC[C@@H](C3)N4)nc(OCC34CCCN3CCC4)nc12` [Example 229, 4-((1R,5S)-3,8-diazabicyclo[3.2.1]octan-3-yl)-8-fluoro-2-((tetrahydro-1H-pyrrolizin-7a(5H)-yl)methoxy)-7-(2-(trifluoromethoxy)phenyl)pyrido[4,3-d]pyrimidine bis-hydrochloride] are within 1.5-fold of each other in IC50: 99.9 nM for the first, 121 nM for the second.

First: CSc1cccc2cccc(-c3ncc4c(N5C[C@H]6CC[C@@H](C5)N6)nc(OCC56CCCN5CCC6)nc4c3F)c12 [Example 199, 4-((1R,5S)-3,8-diazabicyclo[3.2.1]octan-3-yl)-8-fluoro-7-(8-(methylthio)naphthalen-1-yl)-2-((tetrahydro-1H-pyrrolizin-7a(5H)-yl)methoxy)pyrido[4,3-d]pyrimidine]
Second: Fc1c(-c2cccc3cccc(Cl)c23)ncc2c(N3C[C@H]4CC[C@@H](C3)N4)nc(OCC34CCCN3CCOC4)nc12 (stereo partly drawn) [Example 200, 8a-(((4-((1R,5S)-3,8-diazabicyclo[3.2.1]octan-3-yl)-7-(8-chloronaphthalen-1-yl)-8-fluoropyrido[4,3-d]pyrimidin-2-yl)oxy)methyl)hexahydro-1H-pyrrolo[2,1-c][1,4]oxazine]
The IC50 of the first is 120-fold lower: 2 nM for the first, 230 nM for the second.

Going from `C=Cc1cccc2cccc(-c3ncc4c(N5C[C@H]6CC[C@@H](C5)N6)nc(OC[C@@H]5CCCN5C)nc4c3F)c12` [Example 201, 4-((1R,5S)-3,8-diazabicyclo[3.2.1]octan-3-yl)-8-fluoro-2-(((S)-1-methylpyrrolidin-2-yl)methoxy)-7-(8-vinyInaphthalen-1-yl)pyrido[4,3-d]pyrimidine] to `Cc1ccc2c(-c3ncc4c(N5C[C@H]6CC[C@@H](C5)N6)nc(OC[C@@H]5CCCN5C)nc4c3F)cccc2c1` [Example 207, 4-((1R,5S)-3,8-diazabicyclo[3.2.1]octan-3-yl)-8-fluoro-7-(6-methylnaphthalen-1-yl)-2-(((S)-1-methylpyrrolidin-2-yl)methoxy)pyrido[4,3-d]pyrimidine], the IC50 rises from 70.2 nM to 4910 nM (70-fold).

First: COCCO[C@@H]1C[C@@H](COc2nc(N3C[C@H]4CC[C@@H](C3)N4)c3cnc(-c4cccc5cccc(Cl)c45)c(F)c3n2)N(C)C1 [Example 202, 4-((1R,5S)-3,8-diazabicyclo[3.2.1]octan-3-yl)-7-(8-chloronaphthalen-1-yl)-8-fluoro-2-(((2S,4R)-4-(2-methoxyethoxy)-1-methylpyrrolidin-2-yl)methoxy)pyrido[4,3-d]pyrimidine]
Second: CO[C@H]1CN2CCC[C@]2(COc2nc(N3CC4CCC(C3)N4)c3cnc(-c4cccc5cccc(Cl)c45)c(F)c3n2)C1 [Example 225, 4-((1R,5S)-3,8-diazabicyclo[3.2.1]octan-3-yl)-7-(8-chloronaphthalen-1-yl)-8-fluoro-2-((2-methoxytetrahydro-1H-pyrrolizin-7a(5H)-yl)methoxy)pyrido[4,3-d]pyrimidine bis-2,2,2-trifluoroacetate]
The IC50 of the first is 10-fold higher: 94 nM for the first, 9.2 nM for the second. The second is the more potent here.

First: Fc1c(-c2cncc3cccc(Cl)c23)ncc2c(N3C[C@H]4CC[C@@H](C3)N4)nc(OC[C@]34CCCN3C[C@@H](F)C4)nc12 [Example 203, 4-((1R,5S)-3,8-diazabicyclo[3.2.1]octan-3-yl)-7-(5-chloroisoquinolin-4-yl)-8-fluoro-2-(((2S,7aR)-2-fluorotetrahydro-1H-pyrrolizin-7a(5H)-yl)methoxy)pyrido[4,3-d]pyrimidine]
Second: C#Cc1cccc2cncc(-c3ncc4c(N5C[C@H]6CC[C@@H](C5)N6)nc(OC[C@]56CCCN5C[C@@H](F)C6)nc4c3F)c12 [Example 204, 4-((1R,5S)-3,8-diazabicyclo[3.2.1]octan-3-yl)-7-(5-ethynylisoquinolin-4-yl)-8-fluoro-2-(((2S,7aR)-2-fluorotetrahydro-1H-pyrrolizin-7a(5H)-yl)methoxy)pyrido[4,3-d]pyrimidine]
The IC50 of the first is 6.4-fold higher: 28.1 nM for the first, 4.4 nM for the second.

First: C#Cc1cccc2cccc(-c3ncc4c(N5C[C@H]6CC[C@@H](C5)N6)nc(OC[C@]56CCCN5C[C@@H](F)C6)nc4c3F)c12 [Example 205, 4-((1R,5S)-3,8-diazabicyclo[3.2.1]octan-3-yl)-7-(8-ethynylnaphthalen-1-yl)-8-fluoro-2-(((2S,7aR)-2-fluorotetrahydro-1H-pyrrolizin-7a(5H)-yl)methoxy)pyrido[4,3-d]pyrimidine]
Second: Fc1c(-c2cccc3cccc(Cl)c23)ncc2c(N3CC4CCC(C3)N4)nc(OCC34CCCN3C[C@H](F)C4)nc12 (stereo partly drawn) [Example 226, 4-((1R,5S)-3,8-diazabicyclo[3.2.1]octan-3-yl)-7-(8-chloronaphthalen-1-yl)-8-fluoro-2-((2-fluorotetrahydro-1H-pyrrolizin-7a(5H)-yl)methoxy)pyrido[4,3-d]pyrimidine bis-hydrochloride]
The IC50 of the first is 22-fold lower: 1.2 nM for the first, 25.9 nM for the second.

First: CN1C[C@H](NC(=O)c2cccc(S(=O)(=O)F)c2)C[C@H]1COc1nc(N2C[C@H]3CC[C@@H](C2)N3)c2cnc(-c3cccc4cccc(Cl)c34)c(F)c2n1 [Example 211, 3-(((3R,5S)-5-(((4-((1R,5S)-3,8-diazabicyclo[3.2.1]octan-3-yl)-7-(8-chloronaphthalen-1-yl)-8-fluoropyrido[4,3-d]pyrimidin-2-yl)oxy)methyl)-1-methylpyrrolidin-3-yl)carbamoyl)benzenesulfonyl fluoride tris(2,2,2-trifluoroacetate)]
Second: O=C(NCCOc1nc(N2C[C@H]3CC[C@@H](C2)N3)c2cnc(-c3cc(O)cc4ccccc34)c(F)c2n1)c1ccc(S(=O)(=O)F)cc1 [Example 212, 4-((2-((4-((1R,5S)-3,8-diazabicyclo[3.2.1]octan-3-yl)-8-fluoro-7-(3-hydroxynaphthalen-1-yl)pyrido[^4,3-d]pyrimidin-2-yl)oxy)ethyl)carbamoyl)benzenesulfonyl fluoride bis(2,2,2-trifluoroacetate)]
The IC50 of the first is 5.8-fold lower: 212 nM for the first, 1220 nM for the second. The first is the more potent here.

First: OCC12CCCN1CC(Oc1nc(N3C[C@H]4CC[C@@H](C3)N4)c3cnc(-c4cccc5cccc(Cl)c45)c(F)c3n1)C2 (stereo partly drawn) [Example 222, (2-((4-((1R,5S)-3,8-diazabicyclo[3.2.1]octan-3-yl)-7-(8-chloronaphthalen-1-yl)-8-fluoropyrido[4,3-d]pyrimidin-2-yl)oxy)tetrahydro-1H-pyrrolizin-7a(5H)-yl)methanol bis-TFA salt]
Second: O[C@H]1CN2CCC[C@@]2(COc2nc(N3CC4CCC(C3)N4)c3cnc(-c4cccc5cccc(Cl)c45)c(F)c3n2)C1 [Example 223, 7a-(((4-((1R,5S)-3,8-diazabicyclo[3.2.1]octan-3-yl)-7-(8-chloronaphthalen-1-yl)-8-fluoropyrido[4,3-d]pyrimidin-2-yl)oxy)methyl)hexahydro-1H-pyrrolizin-2-ol bis-2,2,2-trifluoroacetate]
The IC50 of the first is 160-fold higher: 1130 nM for the first, 7.1 nM for the second. The second is the more potent here.

Work on `CC1(C)CN2CCCC2(COc2nc(N3CC4CCC(C3)N4)c3cnc(-c4cccc5cccc(Cl)c45)c(F)c3n2)C1` [Example 228, 4-((1R,5S)-3,8-diazabicyclo[3.2.1]octan-3-yl)-7-(8-chloronaphthalen-1-yl)-2-((2,2-dimethyltetrahydro-1H-pyrrolizin-7a(5H)-yl)methoxy)-8-fluoropyrido[4,3-d]pyrimidine bis-2,2,2-trifluoroacetate] yielded an IC50 of 87.7 nM.

Reference: patent US20230279025A1, “KRAS G12D INHIBITORS” (Mirati Therapeutics, Inc., priority 2020, published 2023)
